Measurements: patent US6737383B1, “Herbicidal oxadiazolidines” (priority 1999, dated 2004)

Tests used:
[1] = test system: blackgrass; assay: Test B pre/postemergence blackgrass; assay type: in vivo, Alopecurus myosuroides
Method in brief: (§1)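 Herbicidal effect was estimated by eye on a ten-point control scale after plants spent twelve to sixteen days in a greenhouse following soil or foliar treatment. Foliar sprays targeted plants at one to four leaves; all doses were formulated in a non-phytotoxic solvent with surfactant.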

[2] = test system: surinam grass; assay: Test B pre/postemergence surinam grass; assay type: in vivo, Brachiaria decumbens
Method in brief: as §1

[3] = test system: cocklebur; assay: Test B pre/postemergence cocklebur; assay type: in vivo, Xanthium strumarium
Method in brief: as §1

[4] = test system: corn; assay: Test B pre/postemergence corn; assay type: in vivo, Zea mays
Method in brief: as §1

[5] = test system: crabgrass; assay: Test B pre/postemergence crabgrass; assay type: in vivo, Digitaria sanguinalis
Method in brief: as §1

[6] = test system: giant foxtail; assay: Test B pre/postemergence giant foxtail; assay type: in vivo, Setaria faberii
Method in brief: as §1

[7] = test system: morningglory; assay: Test B pre/postemergence morningglory; assay type: in vivo, Ipomoea hederacea
Method in brief: as §1

[8] = test system: pigweed; assay: Test B pre/postemergence pigweed; assay type: in vivo, Amaranthus retroflexus
Method in brief: as §1

[9] = test system: rape; assay: Test B pre/postemergence rape; assay type: in vivo, Brassica napus
Method in brief: as §1

[10] = test system: soybean; assay: Test B pre/postemergence soybean; assay type: in vivo, Glycine max
Method in brief: as §1

[11] = test system: sugar beet; assay: Test B pre/postemergence sugar beet; assay type: in vivo, Beta vulgaris
Method in brief: as §1

[12] = test system: velvetleaf; assay: Test B pre/postemergence velvetleaf; assay type: in vivo, Abutilon theophrasti
Method in brief: as §1

[13] = test system: wheat; assay: Test B pre/postemergence wheat; assay type: in vivo, Triticum aestivum
Method in brief: as §1

[14] = test system: wild oat; assay: Test B pre/postemergence wild oat; assay type: in vivo, Avena fatua
Method in brief: as §1

[15] = test system: purple nutsedge; assay: Test B pre/postemergence purple nutsedge; assay type: in vivo, Cyperus rotundus
Method in brief: as §1

[16] = test system: rice; assay: Test B flood test rice; assay type: in vivo, Oryza sativa
Method in brief: (§2)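 Flood test on plants grown to the 2-leaf stage; treated plants kept in greenhouse twelve to sixteen days, then visually rated against controls on a 0 (no effect) to 10 (complete control) scale.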

[17] = test system: smallflower flatsedge; assay: Test B flood test smallflower flatsedge; assay type: in vivo, Cyperus difformis
Method in brief: as §2

[18] = test system: duck salad; assay: Test B flood test duck salad; assay type: in vivo, Heteranthera limosa
Method in brief: as §2

[19] = test system: bamyardgrass; assay: Test B flood test barnyardgrass; assay type: in vivo, Echinochloa crus-galli
Method in brief: as §2

[20] = Postemergence, Rate 62 g/ha, scale 0 to 10, 0 is no effect, 10 is complete control
[21] = Postemergence, Rate 125 g/ha, scale of 0 to 10 where 0 is no effect and 10 is complete control
[22] = Postemergence, Rate 250 g/ha, scale of 0 to 10, 0 is no effect, 10 is complete control
[23] = Postemergence, Rate 500 g/ha, scale of 0 to 10 where 0 is no effect and 10 is complete control
[24] = Preemergence, Rate 62 g/ha, scale of 0 to 10 where 0 is no effect and 10 is complete control
[25] = Preemergence, Rate 125 g/ha, scale of 0 to 10 where 0 is no effect and 10 is complete control
[26] = Preemergence, Rate 250 g/ha, scale 0 to 10 (0 no effect, 10 complete control)
[27] = Preemergence, Rate 500 g/ha, scale of 0 to 10 where 0 is no effect and 10 is complete control
[28] = Rate 62 g/ha, flood test species, Pre-emergence, visual evaluation after twelve to sixteen days
[29] = Rate 125 g/ha, under heading Pre-emergence, flood test species, visual evaluation after twelve to sixteen days
[30] = Rate 250 g/ha, Pre-emergence (flood test species), scale 0 to 10, 0 is no effect, 10 is complete control
[31] = Rate 500 g/ha, Pre-emergence section of Table B, 0 to 10 scale (0 no effect, 10 complete control)

CC(C)N(C(=O)n1oc(=O)n(CC(=O)C2CCC2)c1=O)c1ccccc1 [Compound 641]
9: Plant response rating, Crabgrass [5, 27] | Giant foxtail plant response rating [6, 25] | Plant response rating, Giant foxtail [6, 26] | Plant response rating, Giant foxtail [6, 27] | Plant response rating, Morningglory [7, 23]
0: Plant response rating, Blackgrass [1, 20] | Plant response rating, Blackgrass [1, 21] | Blackgrass plant response rating [1, 24] | Blackgrass plant response rating [1, 25] | Plant response rating, B. signalgrass [2, 20] | Plant response rating, B. signalgrass [2, 21] | B. signalgrass plant response rating [2, 22] | B. signalgrass plant response rating [2, 24] | B. signalgrass plant response rating [2, 25] | Plant response rating, Cocklebur [3, 20] | Plant response rating, Cocklebur [3, 21] | Cocklebur plant response rating [3, 22] | Plant response rating, Cocklebur [3, 23] | Cocklebur plant response rating [3, 24] | Cocklebur plant response rating [3, 25] | Plant response rating, Cocklebur [3, 26] | Plant response rating, Cocklebur [3, 27] | Plant response rating, Corn [4, 20] | Plant response rating, Corn [4, 21] | Corn plant response rating [4, 22] | Plant response rating, Corn [4, 23] | Corn plant response rating [4, 24] | Plant response rating, Corn [4, 26] | Plant response rating, Crabgrass [5, 20] | Plant response rating, Crabgrass [5, 21] | Crabgrass plant response rating [5, 24] | Plant response rating, Giant foxtail [6, 20] | Plant response rating, Giant foxtail [6, 21] | Plant response rating, Morningglory [7, 20] | Morningglory plant response rating [7, 24] | Morningglory plant response rating [7, 25] | Plant response rating, Morningglory [7, 26] | Plant response rating, Morningglory [7, 27] | Plant response rating, Redroot pigweed [8, 21] | Redroot pigweed plant response rating [8, 24] | Redroot pigweed plant response rating [8, 25] | Plant response rating, Redroot pigweed [8, 26] | Plant response rating, Rape [9, 20] | Plant response rating, Rape [9, 21] | Rape plant response rating [9, 22] | Plant response rating, Rape [9, 23] | Rape plant response rating [9, 24] | Plant response rating, Rape [9, 27] | Plant response rating, Soybean [10, 20] | Plant response rating, Soybean [10, 21] | Soybean plant response rating [10, 24] | Soybean plant response rating [10, 25] | Plant response rating, Soybean [10, 26] | Plant response rating, Soybean [10, 27] | Plant response rating, Sugarbeets [11, 20] | Plant response rating, Sugarbeets [11, 21] | Sugarbeets plant response rating [11, 22] | Sugarbeets plant response rating [11, 24] | Sugarbeets plant response rating [11, 25] | Plant response rating, Sugarbeets [11, 26] | Plant response rating, Sugarbeets [11, 27] | Plant response rating, Velvetleaf [12, 20] | Plant response rating, Velvetleaf [12, 21] | Velvetleaf plant response rating [12, 22] | Velvetleaf plant response rating [12, 24] | Velvetleaf plant response rating [12, 25] | Plant response rating, Velvetleaf [12, 26] | Plant response rating, Velvetleaf [12, 27] | Plant response rating, Wheat [13, 20] | Plant response rating, Wheat [13, 21] | Wheat plant response rating [13, 22] | Wheat plant response rating [13, 24] | Wheat plant response rating [13, 25] | Plant response rating, Wheat [13, 26] | Plant response rating, Wheat [13, 27] | Plant response rating, Wild oats [14, 20] | Wild oats plant response rating [14, 24] | Wild oats plant response rating [14, 25] | Plant response rating, Wild oats [14, 26] | Plant response rating, Nutsedge [15, 20] | Plant response rating, Nutsedge [15, 21] | Nutsedge plant response rating [15, 24] | Nutsedge plant response rating [15, 25] | Plant response rating, Nutsedge [15, 26] | Plant response rating, Rice (0 to 10 scale, 0 is no effect, 10 is complete control) [16, 28] | Rice plant response rating (0 to 10 scale, 0 is no effect, 10 is complete control) [16, 29] | Rice plant response rating [16, 30] | Rice plant response rating [16, 31] | Plant response rating, S. Flatsedge (0 to 10 scale, 0 is no effect, 10 is complete control) [17, 28] | S. Flatsedge plant response rating (0 to 10 scale, 0 is no effect, 10 is complete control) [17, 29] | S. Flatsedge plant response rating [17, 30] | S. Flatsedge plant response rating [17, 31] | Plant response rating, Ducksalad (0 to 10 scale, 0 is no effect, 10 is complete control) [18, 28] | Ducksalad plant response rating (0 to 10 scale, 0 is no effect, 10 is complete control) [18, 29] | Ducksalad plant response rating [18, 30] | Ducksalad plant response rating [18, 31] | Plant response rating, Barnyardgrass (0 to 10 scale, 0 is no effect, 10 is complete control) [19, 28] | Barnyardgrass plant response rating (0 to 10 scale, 0 is no effect, 10 is complete control) [19, 29] | Barnyardgrass plant response rating [19, 30] | Barnyardgrass plant response rating [19, 31]
3: Crabgrass plant response rating [5, 22] | Crabgrass plant response rating [5, 25] | Giant foxtail plant response rating [6, 22] | Redroot pigweed plant response rating [8, 22] | Plant response rating, Nutsedge [15, 27]
8: Plant response rating, Blackgrass [1, 27] | Plant response rating, B. signalgrass [2, 27]
1: Plant response rating, Morningglory [7, 21] | Soybean plant response rating [10, 22] | Plant response rating, Wild oats [14, 21] | Wild oats plant response rating [14, 22]
6: Plant response rating, Blackgrass [1, 23] | Plant response rating, B. signalgrass [2, 26] | Plant response rating, Crabgrass [5, 23] | Plant response rating, Giant foxtail [6, 23]
4: Plant response rating, B. signalgrass [2, 23] | Nutsedge plant response rating [15, 22]
5: Giant foxtail plant response rating [6, 24] | Plant response rating, Wild oats [14, 27]
2: Blackgrass plant response rating [1, 22] | Plant response rating, Blackgrass [1, 26] | Plant response rating, Corn [4, 27]
7: Plant response rating, Crabgrass [5, 26] | Morningglory plant response rating [7, 22] | Plant response rating, Redroot pigweed [8, 27]
